Reference: paper PMC6661952 (BMC Chemistry, 2019)
Where “and” joins values, the source holds several entries; their conditions need not be identical. Identical values can stand only once. Like-named read-outs stand apart in the source and are kept apart here.

Settings: for Log k (logarithm of the retention factor): C18 column, methanol-water; for Log kw (lipophilicity chromatographic index, intercept of log k = log kw − S φ): extrapolated to pure water as eluent, C18, methanol-water; for φ 0 (isocratic chromatographic hydrophobicity index): φ 0 = − log kw/S, methanol as organic modifier, C18
Description: For chromatographic analysis, stock solutions (200 μg/mL) of each of the investigated samples were prepared in methanol. HPLC measurements were performed utilizing Shimadzu Prominence HPLC system (Shimadzu Corporation, Japan) consisting of LC-20 AD pump, DGU-20 A5 degasser, CBM-20A interface, and SPD-20A UV–Vis detector with a 20 µL injection loop. The column utilized for studying the chromatographic behavior of the analytes was the most frequently used for lipophilicity investigations: Waters symmetry® C18 column [250 mm × 4.6 mm (i.d.), 5-μm particle size]. The flow rate was 1.2 mL/min at room temperature. The retention behaviour of the analytes was investigated as a function of mobile phase composition ranging from 60–80% methanol and 40–20% water. The HPLC analyses were carried out at room temperature under isocratic conditions. Membrane filters (0.45 μm) from Sartorius (Goettingen, Germany) were used for filtration of samples. The absorbance of the analytes during a chromatographic run was performed at 200 nm. Each experiment was run in duplicate. Chromatographic data were collected using LabSolutions CS software. H^1NMR spectra were recorded using Bruker NMR spectrometer (Bruker GmbH, Germany),
It was shown from previous reports that the chromatographic systems using methanol: water as mobile phases were better for log k modeling than those containing acetonitrile as an organic modifier. […] Chromatographic techniques including HPLC are based on the determination of the retention parameters. The indices of lipophilicity measured by HPLC are obtained from the logarithm of the retention factor (log k), which is calculated by the following equation:1 logk=logtr-t0/t0 where; tR is the retention time of the solute and t0 is the retention time of unretained species.
Estimating log kw directly is often very difficult, and is nearly non-feasible, because it can produce elongated retention time and also extreme peak broadening. […] Consequently, to obtain log kw, an extrapolation to 100% of pure water was carried out. Then, linear regression analysis was performed. Linear extrapolation is favored using definite ratios of organic modifier consistent with the lipophilicity level of the solutes.
Another substitute to the index of lipophilicity is the chromatographic index of hydrophobicity φ 0 which was first given by Valkò et al.. It is calculated simply by the equation: φ 0 = − log kw/S. φ0 denotes the volume fraction of the organic modifier in the mobile phase at which equal partitioning of the solute between the mobile and stationary phases is obtained, that is, k = 1, log k = 0 [22]. The value of φ 0 is specific for each compound; it relies solely on the pH, organic modifier and temperature.

[1] = 65% methanol in the mobile phase
[2] = 70% methanol in the mobile phase
[3] = 75% methanol in the mobile phase
[4] = 60% methanol in the mobile phase

| Log k (logarithm of the retention factor) [1] | Log k (logarithm of the retention factor) [2] | Log k (logarithm of the retention factor) [3] | Log k (logarithm of the retention factor) (80% methanol in the mobile phase) | Log k (logarithm of the retention factor) [4] | Log kw (lipophilicity chromatographic index, intercept of log k = log kw − S φ) | φ 0 (isocratic chromatographic hydrophobicity index) | Structure (SMILES) |
| --- | --- | --- | --- | --- | --- | --- | --- |
| 0.950 | 0.83 | 0.530 | 0.235 |  |  |  | Cc1ccc(-c2cc(C(F)(F)F)nn2-c2ccc(S(N)(=O)=O)cc2)cc1 [Celecoxib, 4-[5-(4-methylphenyl)-3-(trifluoromethyl)pyrazol-1yl]benzenesulfonamide, reference compound] |
| 0.501 | 0.123 |  |  | 0.635 | 3.151 and 3.15 | 75.14 | O=C(CS(=O)(=O)c1ccccc1)c1ccc(Br)cc1 [Compound 11c] |
| 0.041 |  |  |  | 0.088 |  | 64.83 | O=C(CS(=O)(=O)c1ccccc1)c1ccccc1 [Compound 11a] |
| 0.493 |  |  |  | 0.317 | 3.597 and 3.60 | 69.81 | Cc1ccc(C(=O)CS(=O)(=O)c2ccccc2)cc1 [Compound 11b] |
| 0.053 |  |  |  | 0.130 | 1.941 and 1.94 | 64.39 | O=S(=O)(C/C(=N/O)c1ccccc1)c1ccccc1 [Compound 16a] |
| 0.901 | 0.364 | 0.123 |  |  | 4.784 and 4.78 | 77.99 | Cc1ccc(S(=O)(=O)CC(=O)c2ccc(Br)cc2)cc1 [Compound 11d] |
| 0.824 | 0.740 |  |  | 0.950 | 4.59 | 77.97 | O=S(=O)(C/C(=N/Nc1ccccc1)c1ccccc1)c1ccccc1 [Compound 17a] |
| 0.743 | 0.611 |  |  | 0.847 | 5.182 and 5.18 | 74.52 | Cc1ccc(/C(CS(=O)(=O)c2ccccc2)=N\Nc2ccccc2)cc1 [Compound 17b] |
| 0.280 | 0.150 |  |  | 0.481 | 2.715 and 2.72 | 72.57 | Cc1ccc(/C(CS(=O)(=O)c2ccccc2)=N\O)cc1 [Compound 16b] |
